Earlier results on 4 compounds are cited in patent publication US10538491B2, “4,5-substituted picolinamide and picolinonitrile metabotropic glutamate receptor 2 negative allosteric modulators” (Vanderbilt University, priority 2015, dated 2020).

Data set [1] concerns Aβ-induced neurodegeneration. The settings on record: cited from earlier work.
A further data set has as its system rat. The settings on record: rat FST, normal animals; cited from earlier work.
The test system of the next data set is Helpless (H) mice. The settings on record: cited from earlier work.
The next data set has as its system mice. As to conditions: cited from earlier work.
For data set [2], the system named is central mGlu2 and mGlu3 receptors. The settings on record: in vivo; cited from earlier work.
In another data set the test system is C57Bl6/J mice. As to conditions: FST; cited from earlier work.
Another data set relates to mouse. As to conditions: mouse TST, normal animals; cited from earlier work.
The conditions of data set [3]: CFS model; cited from earlier work.
For data set [4] the following is noted: treatment for 7 days; cited from earlier work.
The subject of data set [5] is social isolation reared mice. The settings on record: cited from earlier work.
Data set [6] concerns olfactory bulbectomized rats. The settings on record: repeated administration for 14 days; cited from earlier work.

As to `CCS(=O)(=O)N(Cc1cccnc1)c1cccc(-c2ccc(C#N)cc2)c1` [LY566332], in data set [1], the Aβ-induced neurodegeneration entry was “amplified Aβ-induced neurodegeneration”.

With `N[C@](CC1c2ccccc2Oc2ccccc21)(C(=O)O)[C@H]1C[C@@H]1C(=O)O` [LY341495], the antidepressant-like effects result in the data set on rat and in the data set on mouse was “Antidepressant-like effects” each time. Besides, the “activity in the tail suspension test” value in the data set with Helpless (H) mice (Helpless (H) mice) is “active”. The “antidepressant effect in helpless mice” value with Helpless (H) mice (acute administration) is “potent antidepressant effect”. For the same compound, the marble-burying behavior entry in the data set on mice is recorded as “significantly reduce marble-burying behavior”. For the same compound, the “effect on LY566332-amplified Aβ-induced neurodegeneration” value in data set [1] was “prevented”. In data set [2], the “hypolocomotor effect of mGlu2/3 agonist (LY379268)” value was “achieved the same result”. Further, the immobility time result with C57Bl6/J mice is on record as “dose-dependently reduced immobility time”.

With `N[C@]1(C(=O)O)[C@H]2[C@@H](C[C@H]1OCc1ccc(Cl)c(Cl)c1)[C@]2(F)C(=O)O` [MGS0039], the antidepressant-like effects result with rat was “Antidepressant-like effects”. In addition, in the data set with mice, the marble-burying behavior result is “reduced marble-burying behavior” and the spontaneous locomotor activity result is listed as “no significant change”. Moreover, in data set [3], the freezing behavior result is listed as “significantly decreased freezing behavior”. Moreover, the “number of escape failures” value in [4] was “significantly reduced the number of escape failures”. Besides, the “immobility in the FST” value in data set [5] is “reversed the increased immobility”. Besides, in data set [6], the “hyperactivity in the open field test” value is “attenuated the hyperactivity” and the “learning deficit in the passive avoidance test” value is given as “attenuated the learning deficit”. Moreover, the antidepressant-like effects result in the data set with mouse is given as “Antidepressant-like effects”.

As for `CN1C(=O)CN=C(c2ccccc2)c2cc(Cl)ccc21` [diazepam], the freezing behavior entry in data set [3] is listed as “significantly decreased freezing behavior”.
